According to patent US12655116B2, “Substituted isophthalic acid diamides” (Bayer Aktiengesellschaft, priority 2020, dated 2026):

How the values were obtained:
[1] = tested on: AVEFA; assay: Post-emergence herbicidal action against AVEFA; assay type: in vivo, Avena fatua; conditions: 20 g/ha, visual assessment about 3 weeks after treatment, 100% = plants have died, 0% = like control plants; for pest or weed control at 20 g/ha: Avena fatua, 504 h
In short: (§1)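 Visual % rating (0% = as untreated, 100% = dead) ~3 wk after spraying one-leaf-stage plants grown in sandy loam; WP/EC in water at 600–800 l/ha, 0.2% wetting agent.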

[2] = tested on: LOLRI; assay: Pre-emergence herbicidal action against LOLRI; assay type: in vivo, Lolium rigidum; conditions: 80 g/ha; for pest or weed control at 80 g/ha: Lolium rigidum, 504 h
In short: (§2)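 Sandy loam pots, seeds covered with soil, then surface-treated with WP or EC formulations at 600–800 l/ha water plus 0.2% wetting agent. Greenhouse, 3 weeks. Percent damage vs untreated controls.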

[3] = tested on: SETVI; assay: Post-emergence herbicidal action against SETVI; assay type: in vivo, Setaria viridis; conditions: Setaria viridis, 504 h; for pest or weed control at 5 g/ha: dosage 5 g/ha; for pest or weed control at 20 g/ha: dosage 20 g/ha
In short: as §1

[4] = tested on: ALOMY; assay: Post-emergence herbicidal action against ALOMY; assay type: in vivo, Alopecurus myosuroides; conditions: Alopecurus myosuroides, 504 h, visual assessment about 3 weeks after treatment vs untreated controls; for pest or weed control at 20 g/ha: dosage 20 g/ha
In short: as §1

[5] = tested on: MATIN; assay: Pre-emergence herbicidal action against MATIN; assay type: in vivo, Matricaria inodora
In short: as §2

[6] = tested on: VIOTR; assay: Pre-emergence herbicidal action against VIOTR; assay type: in vivo, Viola tricolor
In short: as §2

[7] = tested on: AMARE; assay: Pre-emergence herbicidal action against AMARE; assay type: in vivo, Amaranthus retroflexus; conditions: for pest or weed control at 20 g/ha / pest or weed control at 80 g/ha: Amaranthus retroflexus, 504 h
In short: as §2

[8] = tested on: ABUTH; assay: Post-emergence herbicidal action against ABUTH; assay type: in vivo, Abutilon theophrasti; conditions: visual assessment about 3 weeks after treatment vs untreated controls; for pest or weed control at 5 g/ha / pest or weed control at 20 g/ha: Abutilon theophrasti, 504 h; for pest or weed control at 5 g/ha: dosage 5 g/ha
In short: as §1

[9] = tested on: SETVI; assay: Pre-emergence herbicidal action against SETVI; assay type: in vivo, Setaria viridis; conditions: for pest or weed control at 20 g/ha / pest or weed control at 80 g/ha: Setaria viridis, 504 h; for pest or weed control at 20 g/ha: dosage 20 g/ha
In short: as §2

[10] = tested on: AVEFA; assay: Pre-emergence herbicidal action against AVEFA; assay type: in vivo, Avena fatua; conditions: pre-emergence
In short: as §2

[11] = tested on: ECHCG; assay: Pre-emergence herbicidal action against ECHCG; assay type: in vivo, Echinochloa crus-galli; conditions: 80 g/ha; for pest or weed control at 80 g/ha: Echinochloa crus-galli, 504 h
In short: as §2

[12] = tested on: AMARE; assay: Post-emergence herbicidal action against AMARE; assay type: in vivo, Amaranthus retroflexus; conditions: 20 g/ha, visual assessment about 3 weeks after treatment, 100% = plants have died, 0% = like control plants; for pest or weed control at 20 g/ha: Amaranthus retroflexus, 504 h
In short: as §1

[13] = tested on: VERPE; assay: Pre-emergence herbicidal action against VERPE; assay type: in vivo, Veronica persica; conditions: for pest or weed control at 20 g/ha / pest or weed control at 80 g/ha: Veronica persica, 504 h; for pest or weed control at 20 g/ha: dosage 20 g/ha
In short: as §2

[14] = tested on: VERPE; assay: Post-emergence herbicidal action against VERPE; assay type: in vivo, Veronica persica; conditions: 20 g/ha
In short: as §1

[15] = tested on: ALOMY; assay: Pre-emergence herbicidal action against ALOMY; assay type: in vivo, Alopecurus myosuroides; conditions: pre-emergence
In short: as §2

[16] = tested on: MATIN; assay: Post-emergence herbicidal action against MATIN; assay type: in vivo, Matricaria inodora
In short: as §1

[17] = tested on: ABUTH; assay: Pre-emergence herbicidal action against ABUTH; assay type: in vivo, Abutilon theophrasti
In short: as §2

[18] = tested on: DIGSA; assay: Pre-emergence herbicidal action against DIGSA; assay type: in vivo, Digitaria sanguinalis
In short: as §2

[19] = tested on: PHBPU; assay: Pre-emergence herbicidal action against PHBPU; assay type: in vivo, Pharbitis purpurea
In short: as §2

[20] = tested on: PHBPU; assay: Post-emergence herbicidal action against PHBPU; assay type: in vivo, Pharbitis purpurea
In short: as §1

[21] = tested on: ECHCG; assay: Post-emergence herbicidal action against ECHCG; assay type: in vivo, Echinochloa crus-galli
In short: as §1

[22] = tested on: VIOTR; assay: Post-emergence herbicidal action against VIOTR; assay type: in vivo, Viola tricolor; conditions: 20 g/ha
In short: as §1

[23] = tested on: DIGSA; assay: Post-emergence herbicidal action against DIGSA; assay type: in vivo, Digitaria sanguinalis; conditions: 20 g/ha
In short: as §1

[24] = Tripleurospermum inodorum, 504 h, dosage 80 g/ha
[25] = Viola tricolor, 504 h, dosage 80 g/ha
[26] = 20 g/ha, scored visually after 3 weeks vs untreated controls, 100% = plants have died, 0% = like control plants
[27] = 80 g/ha, scored visually after 3 weeks vs untreated controls, 100% = plants have died, 0% = like control plants
[28] = Alopecurus myosuroides, 504 h, 80 g/ha, scored visually after 3 weeks vs untreated controls (100% = plants have died, 0% = like control plants)
[29] = Tripleurospermum inodorum, 504 h, dosage 20 g/ha
[30] = Ipomoea purpurea, 504 h, dosage 20 g/ha
[31] = 80 g/ha, scored visually after 3 weeks vs untreated controls (100% = plants have died, 0% = like control plants)

CNC(=O)c1c(Cl)ccc(C(=O)Nc2nnnn2C)c1Br [Example 1-349]
pest or weed control at 20 g/ha [1]: 80%
pest or weed control at 80 g/ha [2]: 90%
pest or weed control at 5 g/ha [3]: 90%
pest or weed control at 20 g/ha [3]: 90%
pest or weed control at 20 g/ha [4]: 80%
pest or weed control at 80 g/ha [5, 24]: 90%
pest or weed control at 80 g/ha [6, 25]: 100%
pest or weed control at 20 g/ha [7, 26]: 100%
pest or weed control at 80 g/ha [7, 27]: 100%
pest or weed control at 5 g/ha [8]: 80%
pest or weed control at 20 g/ha ([8]; dosage 20 g/ha): 90%
pest or weed control at 20 g/ha [9]: 90%
pest or weed control at 80 g/ha ([9]; dosage 80 g/ha): 100%
pest or weed control at 80 g/ha ([10]; Avena fatua, 504 h, 80 g/ha): 100%
pest or weed control at 80 g/ha [11]: 90%
pest or weed control at 20 g/ha [12]: 100%
pest or weed control at 20 g/ha [13]: 90%
pest or weed control at 80 g/ha ([13]; dosage 80 g/ha): 90%
pest or weed control at 20 g/ha ([14]; Veronica persica, 504 h): 80%
pest or weed control at 80 g/ha [15, 28]: 100%

CCn1nnnc1NC(=O)c1ccc(C(F)(F)F)c(C(=O)NC(C)C)c1C [Example 2-33]
pest or weed control at 20 g/ha [1]: 100%
pest or weed control at 80 g/ha [2]: 80%
pest or weed control at 5 g/ha [3]: 80%
pest or weed control at 20 g/ha [3]: 100%
pest or weed control at 5 g/ha ([4]; dosage 5 g/ha): 90%
pest or weed control at 20 g/ha [4]: 100%
pest or weed control at 20 g/ha [5, 29]: 100%
pest or weed control at 80 g/ha [5, 24]: 100%
pest or weed control at 5 g/ha ([16]; Tripleurospermum inodorum, 504 h, dosage 5 g/ha): 90%
pest or weed control at 20 g/ha [16, 29]: 90%
pest or weed control at 20 g/ha ([6]; Viola tricolor, 504 h, dosage 20 g/ha): 100%
pest or weed control at 80 g/ha [6, 25]: 100%
pest or weed control at 20 g/ha [7, 26]: 100%
pest or weed control at 80 g/ha [7, 27]: 100%
pest or weed control at 80 g/ha ([17]; Abutilon theophrasti, 504 h, 80 g/ha, scored visually after 3 weeks vs untreated controls (100% = plants have died, 0% = like control plants)): 100%
pest or weed control at 20 g/ha ([17]; Abutilon theophrasti, 504 h, dosage 20 g/ha, scored visually after 3 weeks vs untreated controls, 100% = plants have died, 0% = like control plants, read-out: Pre-emergence action against ABUTH (herbicidal activity in percent)): 100%
pest or weed control at 20 g/ha ([18]; Digitaria sanguinalis, 504 h, dosage 20 g/ha): 100%
pest or weed control at 80 g/ha ([18]; Digitaria sanguinalis, 504 h, dosage 80 g/ha): 100%
pest or weed control at 5 g/ha [8]: 90%
pest or weed control at 20 g/ha ([8]; dosage 20 g/ha): 90%
pest or weed control at 20 g/ha [19, 30]: 80%
pest or weed control at 80 g/ha ([19]; Ipomoea purpurea, 504 h, dosage 80 g/ha): 80%
pest or weed control at 20 g/ha [20, 30]: 90%
pest or weed control at 20 g/ha [9]: 80%
pest or weed control at 80 g/ha ([9]; dosage 80 g/ha): 100%
pest or weed control at 80 g/ha ([10]; Avena fatua, 504 h, 80 g/ha): 90%
pest or weed control at 20 g/ha ([10]; Avena fatua, 504 h, 20 g/ha, scored visually after 3 weeks, 100% = plants have died, 0% = like control plants): 80%
pest or weed control at 80 g/ha [11]: 100%
pest or weed control at 20 g/ha [12]: 100%
pest or weed control at 20 g/ha [13]: 80%
pest or weed control at 80 g/ha ([13]; dosage 80 g/ha): 90%
pest or weed control at 5 g/ha ([21]; Echinochloa crus-galli, 504 h, dosage 5 g/ha): 90%
pest or weed control at 20 g/ha ([21]; Echinochloa crus-galli, 504 h, dosage 20 g/ha): 100%
pest or weed control at 80 g/ha [15, 28]: 100%
pest or weed control at 20 g/ha ([15]; Alopecurus myosuroides, 504 h, 20 g/ha, scored visually after 3 weeks, 100% = plants have died, 0% = like control plants): 90%

CCn1nnnc1NC(=O)c1ccc(C(F)(F)F)c(C(=O)NC(C)C2CC2)c1Cl (stereo not drawn) [Example 2-135]
Post-emergence action at 20 g/ha against AVEFA in % [1]: 80%
Pre-emergence action against LOLRI in % [2]: 80%
Pre-emergence action against MATIN in % ([5]; dosage 20 g/ha): 90%
Pre-emergence action against MATIN in % ([5]; dosage 80 g/ha): 100%
Post-emergence action against MATIN in % ([16]; dosage 5 g/ha): 90%
Post-emergence action against MATIN in % ([16]; dosage 20 g/ha): 90%
Post-emergence action against VIOTR in % [22]: 90%
Pre-emergence action against VIOTR in % ([6]; dosage 20 g/ha): 100%
Pre-emergence action against VIOTR in % ([6]; dosage 80 g/ha): 100%
Pre-emergence action against AMARE in % [7, 26]: 100%
Pre-emergence action against AMARE in % [7, 31]: 100%
Pre-emergence action against ABUTH (herbicidal activity) [17, 31]: 100%
Pre-emergence action against ABUTH (herbicidal activity in percent) ([17]; dosage 20 g/ha, scored visually after 3 weeks vs untreated controls, 100% = plants have died, 0% = like control plants): 100%
Pre-emergence action against DIGSA in % ([18]; dosage 20 g/ha): 100%
Pre-emergence action against DIGSA in % ([18]; dosage 80 g/ha): 100%
Post-emergence action against ABUTH in % ([8]; dosage 20 g/ha): 80%
Pre-emergence action against PHBPU in % ([19]; dosage 80 g/ha): 80%
Post-emergence action against DIGSA [23]: 80%
Post-emergence action against PHBPU in % ([20]; dosage 5 g/ha): 80%
Post-emergence action against PHBPU in % ([20]; dosage 20 g/ha): 80%
Pre-emergence action against SETVI in % ([9]; dosage 80 g/ha): 100%
Pre-emergence action against AVEFA in % ([10]; 80 g/ha): 90%
Pre-emergence action against ECHCG in % [11]: 100%
Post-emergence action at 20 g/ha against AMARE in % [12]: 90%
Pre-emergence action against VERPE in % ([13]; dosage 80 g/ha): 100%
Post-emergence action against ECHCG in % ([21]; dosage 5 g/ha): 80%
Post-emergence action against ECHCG in % ([21]; dosage 20 g/ha): 90%
Post-emergence action against VERPE in % [14]: 90%
Pre-emergence action against ALOMY (herbicidal activity) [15, 31]: 90%
